Experimental data: patent US20170304329A1 (THE UNIVERSITY OF KANSAS, priority 2014, published 2017)
Values joined by “and” are separate entries in the source; they are usually repeats but may differ in a detail not shown here. Identical values can stand only once. Counter-ions that a name gives are not always drawn. Like-named read-outs stand apart in the source and are kept apart here. One block for each molecule: values may come before it.

Key:
[1] = rats
[2] = cited from earlier work
[3] = Study 11428: plasma CPX pharmacokinetics after IV CPX-POM, SQ CPX-POM and oral CPX-O; assay type: in vivo, male Sprague-Dawley rats; details: rats; for AUC: plasma, po
Text: (§6) Intravenous CPX-POM was used as the reference in characterizing the bioavailability of ciclopirox following SQ ciclopirox-POM prodrug in this specie.

[4] = dogs
[5] = Study 208-02: plasma CPX pharmacokinetics after IV and oral CPX-O and CPX-POM; assay type: in vivo, male C57/Bl6 mice; details: mice
Text: Study 208-02. Bioavailability of Ciclopirox Following Oral and Intravenous Administration of Ciclopirox-POM Prodrug in the Mouse. […] The objectives of this study were to characterize the rate and extent of CPX-POM metabolism and assess the feasibility of orally administered ciclopirox-POM prodrug in support of future cancer proof of principle studies.

[6] = humans; oral; cited from earlier work
[7] = Study 11429: plasma CPX pharmacokinetics after IV CPX-POM, SQ CPX-POM and oral CPX-O; assay type: in vivo, male beagle dogs; details: dogs; for AUC: plasma, po, 9 mg/kg
Text: as §6

β-glucuronidase = test system: β-glucuronidase
Method: Based on human excretion data [Kellner et al, Arzneimittel-Forschung. 31 (8A):1337-1353], as well as evidence that bladder cancer patients have increased glucuronidase activity in urine [Paigen, K., Peterson, J., Paigen B. (1984) Role of urinary β-glucuronidase activity in human bladder cancer. Cancer Res 44:3620-3623], we conducted in vitro metabolism studies to characterize the stability of ciclopirox glucuronide in urine (at a concentration of 150 μM) obtained from bladder cancer patients compared to control urine collected from healthy volunteers.

T24 cells = assay: Cell proliferation, hexosaminidase assay; assay type: cell-based, human
Method: (§1) To determine the effect of CPX on bladder cancer cell proliferation in T24 (MIBC) and 253-JBV (NMIBC) cells, 5,000 cells per well were seeded on to 96-well plates and grown overnight. The cells were then treated with increasing doses of CPX in RPMI media containing 10% FBS. Analysis of cell proliferation after the treatment period was estimated by the hexosaminidase assay. Briefly, the medium was removed and hexosaminidase substrate solution in citrate buffer pH 5 (7.5 mM), p-nitrophenol-N-acetyl-beta-D-glucosaminidase (Sigma Aldrich) was added at 75 μL per well. The plate was incubated at 37° C. in 100% humidity for 30 minutes. The reaction was stopped with 112.5 μL of 50 mM glycine containing 5 mM of EDTA (pH 10.4). The absorbance was measured at 405 nm. Experiments were conducted at n=6, and then repeated at least three times. The data were analyzed as percent of control, where the control wells were treated with equivalent amounts of DMSO alone. For IC50 calculations, a plot between the drug concentration and hexosaminidase activity was generated and the data was fitted either linearly or exponentially. The best fit was used for further processing of data.
(§2) We determined and compared the effect of CPX with CPX-POM and CPX-glucuronide in vitro by performing proliferation assay. To determine the effect of CPX, CPX-POM and CPX-glucuronide on bladder cancer cell proliferation in T24 (MIBC) and 253-JBV (NMIBC) cells, 5,000 cells per well were seeded on to 96-well plates and grown overnight. The cells were then treated with increasing doses of CPX, CPX-POM and CPX-glucuronide in RPMI media containing 10% FBS. Analysis of cell proliferation after the treatment period was estimated by the hexosaminidase assay. Briefly, the medium was removed and hexosaminidase substrate solution in citrate buffer pH 5 (7.5 mM), p-nitrophenol-N-acetyl-beta-D-glucosaminidase (Sigma Aldrich) was added at 75 μL per well. The plate was incubated at 37° C. in 100% humidity for 30 minutes. The reaction was stopped with 112.5 μL of 50 mM glycine containing 5 mM of EDTA (pH 10.4). The absorbance was measured at 405 nm.
(§3) Experiments were conducted at n=6, and then repeated at least three times. The data were analyzed as percent of control, where the control wells were treated with equivalent amounts of DMSO alone. For IC50 so calculations, a plot between the drug concentration and hexosaminidase activity was generated and the data was fitted either linearly or exponentially.

253JBV cells = assay: Cell proliferation, hexosaminidase assay; assay type: cell-based, human
Method: as §1, §2, §3

[8] = mice
Method: The plasma and urine pharmacokinetics of ciclopirox (CPX) were characterized in the mouse following 10 mg/kg IV and 50 mg/kg IP administration of ciclopirox-POM prodrug (CPX-POM). […] In addition, we characterized the urinary excretion of CPX and ciclopirox glucuronide (CPX-G) to describe urinary tract exposure to CPX following IP administration of CPX-POM. Two treatment groups of 30 C57BL/6 mice each were treated with CPX-POM. Prior to and over six hours post-dose, three animals were sacrificed at each selected plasma sampling time point. Blood (plasma) was collected by cardiac puncture for bioanalysis. Plasma was pooled at each time point. In addition, two groups of six mice each were administered 10 mg/kg IV and 50 mg/kg IP CPX-POM to characterize urine pharmacokinetics. Mice were placed in metabolism cages with urine collected over 24 hours post-dose (0-8 hour and 8-24 hour urine collection intervals). As with plasma, urine samples collected from six animals were pooled for bioanalysis.

Aqueous solubility = assay type: physicochemical
[9] = Study 10954: plasma CPX pharmacokinetics after IV CPX-POM and CPX-O; assay type: in vivo, male Sprague-Dawley rats; details: rats
Text: (§4) Study 10954. Bioavailability of Ciclopirox Following Intravenous Administration of Ciclopirox-POM Prodrug in the Rat. […] Given the low oral bioavailability of CPX observed in the mouse following administration of CPX-O and CPX-POM, this route of administration was not investigated in this study.

[10] = test system: BBN induced bladder tumors; assay: BBN induced bladder tumor model; assay type: in vivo, mouse
Text: There were no significant differences in bladder weights between the two CPX-POM treatment groups. […] There is a strong correlation between CPX-POM treatment and tumor stage. […] Hematoxylin and Eosin stained bladder tissue sections of BBN alone group animals show a very high frequency of T3 stage tumors.

[11] = Study 10954: urine CPX and CPX-G pharmacokinetics after IV CPX-POM and CPX-O; assay type: in vivo, male Sprague-Dawley rats; details: rats; 10 mg/kg IV
Text: as §4

[12] = test system: proliferating cell nuclear antigen (PCNA) in T24 cells; assay: Western blot of PCNA; assay type: cell-based, human
Text: CPX-POM inhibits proliferating cell nuclear antigen (PCNA) both in vitro and in vivo. […] Also, studies show a positive correlation between notch intracellular pathway and PCNA.

[13] = Study 11206: urine CPX and CPX-G pharmacokinetics after single and repeated IP CPX-POM; assay type: in vivo, male C57/Bl6 mice; details: mice; IP 50, 100, and 200 mg/kg
Method: Urine ciclopirox (CPX) pharmacokinetics were characterized in mice following single (Day 1) and repeat (Day 10) dose (once daily for ten consecutive days) administration of 50, 100, and 200 mg/kg ciclopirox-POM prodrug (CPX-POM) to three separate groups of six mice each, are summarized in Table 3B below. […] Following single and repeat dose IP administration of 50, 100, and 200 mg/kg CPX-POM, less than 1% of the dose was excreted as CPX over 24 hours. Despite the low percent dose recovery as ciclopirox, however, urine CPX concentrations exceeded the in vitro IC50 value of 2 μM by several-fold across the entire dose range.

[14] = Study 10953: urine CPX pharmacokinetics after IV CPX-POM and CPX-O; assay type: in vivo, male beagle dogs; details: dogs; 3 mg/kg IV
Text: (§5) Study 10953. Bioavailability of Ciclopirox Following Intravenous Administration of Ciclopirox-POM Prodrug in the Dog. […] Given the low oral bioavailability of CPX observed in the mouse following administration of CPX-O and CPX-POM, this route of administration was not investigated in this study.

[15] = Study 10953: plasma CPX pharmacokinetics after IV CPX-POM and CPX-O; assay type: in vivo, male beagle dogs; details: dogs
Method: as §5
FIG. 14 illustrates the mean plasma CPX concentration-time profiles following administration of 3 mg/kg IV CPX-POM and CPX-O to four male beagle dogs.

[16] = Series of pharmacokinetic studies (summary); details: following IV administration in mice, rats, and dogs
[17] = male, Sprague-Dawley, rat, plasma CPX, single 30 mg/kg oral
[18] = male, C57/Bl6, mouse, plasma CPX, single 10 mg/kg IV
[19] = male, beagle, dog, plasma CPX, single 9 mg/kg oral
[20] = 150 μM CPX-G, six-hour incubation, pooled urine from six NMIBC patients

FeCPX ([1]; urine, single 30 mg/kg oral): 0.25 ± 0.18% | Xe/dtCPX 0-8 hr ([1]; urine, single 30 mg/kg oral): 0.63 ± 0.16 µg/h | Xe/dtCPX 8-24 hr ([1]; urine, single 30 mg/kg oral): 1.08 ± 1.11 µg/h | XeCPX 0-24 hr ([1]; urine, single 30 mg/kg oral): 22.30 ± 16.65 µg | UCPX 0-24 hr ([1]; urine, single 30 mg/kg oral, 30 mg/kg): 1,711 ± 1,427 ng/mL and 8.28 ± 6.89 μM | AUC ([3]; male, Sprague-Dawley, rat, 30 mg/kg, plasma CPX, single 30 mg/kg oral, read-out: AUC0∫^n): 211 ± 84.5 ng·h/mL | AUC ([3]; male, Sprague-Dawley, rat, 30 mg/kg, plasma CPX, single 30 mg/kg oral, read-out: AUC0∫^∞): 378 ± 140 ng·h/mL | Cmax [3, 17]: 373 ± 158 ng/mL | Tmax [3, 17]: 15 ± 7.74 min | half-life [3, 17]: 48.1 ± 33.5 min | Kel ([3]; plasma CPX, single 30 mg/kg oral): 1.234 ± 0.742 h⁻¹ | F ([3]; plasma CPX, single 30 mg/kg oral, reference IV CPX-POM, 30 mg/kg): 4.6% and 4.56% | FeCPX ([4]; urine, single 9 mg/kg oral): 0.32 ± 0.21% | Xe/dtCPX 8-24 hr ([4]; urine, single 9 mg/kg oral): 2.90 ± 1.70 µg/h | XeCPX 0-24 hr ([4]; urine, single 9 mg/kg oral): 299 ± 208 µg | UCPX 0-24 hr ([4]; urine, single 9 mg/kg oral, 9 mg/kg): 1,602 ± 750^ ng/mL and 7.74 ± 3.62 μM | C0 [5, 18]: 11300 ng/mL | MRT [5, 18]: 15.5 min | clearance [5, 18]: 108 mL/min/kg | Vd ([5]; male, C57/Bl6, mouse, plasma CPX, single 10 mg/kg IV, read-out: Vss): 1.68 L/kg | AUMC0∫^n ([5]; plasma CPX, single 10 mg/kg IV): 358 ng*hr^2/mL | AUMC0∫^∞ ([5]; plasma CPX, single 10 mg/kg IV): 401 ng*hr^2/mL | Vdz ([5]; plasma CPX, single 10 mg/kg IV): 5.7 L/kg | AUC ([7]; male, beagle, dog, plasma CPX, single 9 mg/kg oral, read-out: AUC0∫^n): 1900 ng·h/mL | AUC ([7]; male, beagle, dog, plasma CPX, single 9 mg/kg oral, read-out: AUC0∫^∞): 2700 ng·h/mL | Cmax [7, 19]: 1020 ng/mL | Tmax [7, 19]: 15 ± 7.74 min | half-life [7, 19]: 331 ± 23.4 min | Kel ([7]; plasma CPX, single 9 mg/kg oral): 0.126 ± 0.009 h⁻¹
SMILES: Cc1cc(C2CCCCC2)n(O)c(=O)c1 [CPX-O, ciclopirox olamine]
tolerability ([2]; 80 mg/m^2 oral, once daily): well tolerated | toxicity ([2]; oral, four times daily): dose-limiting gastrointestinal toxicity | dose excreted in urine within 6 hours [6]: 87% | dose excreted in urine within 12 hours [6]: approximately 95% | dose in urine identified as ciclopirox [6]: 4% | dose in urine identified as ciclopirox and ciclopirox glucuronide [6]: 83% | dose in urine identified as ciclopirox glucuronide [6]: 79%

SMILES: Cc1cc(C2CCCCC2)n(O[C@H]2OC(C(=O)O)[C@H](O)C(O)C2O)c(=O)c1 (stereo partly shown) [CPX-G, ciclopirox glucuronide]
ciclopirox formed by hydrolysis (β-glucuronidase; [20]): 7.9 µM | formation rate (β-glucuronidase; [20]): 5% | extent of ciclopirox formation, patient urine vs healthy volunteer urine (β-glucuronidase; bladder cancer patient urine compared to healthy volunteers): approximately 11.6 fold | rate of β-glucuronidase-mediated hydrolysis, patient urine vs control urine (β-glucuronidase; pooled bladder cancer patient urine vs control urine): 5.6-11.5 fold | effect on cell proliferation (T24 cells; up to 72 h): did not show any significant effect | effect on cell proliferation (253JBV cells; up to 72 h): did not show any significant effect

SMILES: Cc1cc(C2CCCCC2)n(OCOP(=O)(O)O)c(=O)c1 [CPX-POM, phosphate disodium salt]
tolerability ([8]; 10 mg/kg IV and 50 mg/kg IP single doses): well tolerated | CPX Cmax relative to in vitro IC50 ([8]; 50 mg/kg IP, IC50 2 μM (414 ng/mL)): five-fold greater than the IC50 | CPX-POM in plasma (BQL) ([8]; following either treatment (10 mg/kg IV, 50 mg/kg IP)): < 25 ng/mL | tolerability ([1]; 20 mg/kg IV and 30 mg/kg SQ): well tolerated | aqueous solubility (Aqueous solubility): improve the aqueous solubility of ciclopirox | IC50 (T24 cells; Homo sapiens, T-24, 48 h, 48 h): ≥ 45 µM | IC50 (253JBV cells; Homo sapiens, 48 h): 48 µM | CPX-POM in blood or urine ([3]; 20 mg/kg IV and 30 mg/kg SQ): not detected in any blood or urine sample | tolerability ([4]; 3 mg/kg IV and 9 mg/kg SQ): well tolerated | CPX-POM in plasma ([9]; 10 mg/kg IV bolus): failed to detect CPX-POM in the majority of samples collected | Cmax relative to in vitro IC50 ([9]; 10 mg/kg IV, IC50 2 μM (414 ng/mL)): approximately twenty-fold greater than the IC50 | tumor stage ([10]; H&E stained bladder tissue sections, vs BBN alone): significant reduction in the stage T3 frequency | Notch downstream target proteins ([10]; bladder tissue): significantly reduced the Notch downstream target proteins such as Cyclin D1 and c-Myc | Notch1 signaling and γ-secretase complex proteins in vivo ([10]; bladder tissue, both treatment groups): significantly reduced Notch1 activation | PCNA level in vivo ([10]; bladder tumor tissues): reduced the level of PCNA in vivo | bladder weights (measure of tumor volume) ([10]; four weeks once daily IP 100 mg/kg and 200 mg/kg, vs controls): significantly lower (p=0.013) | CPX-POM in urine [11]: not detected in any urine samples collected | prodrug in plasma ([5]; following oral and IV administration): not detected in plasma | PCNA level [12]: time dependent decrease in the level of PCNA | CPX-POM in urine [13]: not detected in any urine samples | CPX-POM in urine [14]: not detected in any urine sample | CPX-POM in plasma ([15]; 3 mg/kg IV bolus): not detected in the majority of plasma samples assayed | mean Cmax relative to in vitro IC50 ([15]; 3 mg/kg IV, IC50 2 μM (414 ng/mL)): approximately seven-fold greater than the IC50 | prodrug in plasma and urine [16]: not detected in plasma nor urine | CPX-POM in blood or urine ([7]; 3 mg/kg IV and 9 mg/kg SQ): not detected in any blood or urine sample
